Data taken from US20200131144A1, “AMINE OR (THIO)AMIDE CONTAINING LXR MODULATORS” (Phenex-FXR GmbH, priority 2017, published 2020).
Where two headings read alike, the source gives them in different places.

What was measured:
LXRβ full length (FL) = molecular target: T1, LXRβ full length (FL) (Homo sapiens, UniProt P55055, INS174Q); assay: LXR Gal4 reporter transient transfection assay, mammalian two-hybrid, FL-M2H Gal4β; assay type: cell-based; conditions: HEK293 cells; inverse agonist unless *
T1 construct: the full length (FL) proteins of LXRα (amino acids 1-447); NP005684; NP009052; expressed in transfected cells; host or cells: HEK293
T1 sequence (P55055 with tags, fused parts or gaps INS174Q): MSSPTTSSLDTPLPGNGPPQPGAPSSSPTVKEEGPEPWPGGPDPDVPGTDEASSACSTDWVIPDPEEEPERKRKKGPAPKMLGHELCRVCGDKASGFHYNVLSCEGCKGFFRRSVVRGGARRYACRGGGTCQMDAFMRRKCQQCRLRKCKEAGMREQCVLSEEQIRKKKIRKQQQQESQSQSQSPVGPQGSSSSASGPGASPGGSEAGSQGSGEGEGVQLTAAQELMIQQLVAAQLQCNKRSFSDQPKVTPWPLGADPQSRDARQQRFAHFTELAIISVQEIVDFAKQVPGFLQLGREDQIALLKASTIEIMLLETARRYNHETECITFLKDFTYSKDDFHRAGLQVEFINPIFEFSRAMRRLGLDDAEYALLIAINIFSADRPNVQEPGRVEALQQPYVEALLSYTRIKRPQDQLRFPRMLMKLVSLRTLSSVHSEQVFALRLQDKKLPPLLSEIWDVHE
Method in brief: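 HEK293 cells transiently cotransfected with NFkB-AD fusions of full-length or LBD LXRα/β, GAL4-DBD fusions of SRC1 coactivator or NCoR corepressor domains, GAL4-driven firefly luciferase and Renilla control. Compound added 4 h post-transfection (≤0.2% DMSO), 16 h incubation; firefly and Renilla luminescence read sequentially.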

[1] = Pharmacokinetics in mice after single oral dosing, blood and liver exposure by LC-MS; assay type: in vivo, mice (C57/bl6/J); conditions: single oral dose 20 mg/kg, time point 4 h; for Kp at 4 h: male, C57/bl6/J, mouse, liver/blood, read-out: liver/blood ratio
Method in brief: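 Male C57BL/6J mice fasted ≥12 h, given a single oral dose of 20 mg/kg (n=3 per group). Sacrifice at 4, 12 or 24 h post-dose; liver and blood levels quantified by LC-MS.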

[2] = Short term HFD mouse model: liver and plasma exposure after multiple oral dosing; assay type: in vivo, mice (C57BL/6J); conditions: C57BL/6J, HFD mice, three oral doses of 10 mg/kg each, 4 h after final dose; for Kp at 4 h: liver/plasma, read-out: liver/plasma ratio, 4 h
Description: Short Term HFD Mouse Model:
For this, C57BL/6J were purchased from Elevage Janvier (Rennes, France) at the age of 8 weeks. After an acclimation period of two weeks, animals were prefed on a high fat diet (HFD) (Ssniff Spezialdiäten GmbH, Germany, Surwit EF D12330 mod, Cat. No. E15771-34), with 60 kcal % from fat plus 1% (w/w) extra cholesterol (Sigma-Aldrich, St. Louis, Mo.) for 5 days. Animals were maintained on this diet during treatment with LXR modulators. The test compounds were formulated in 0.5% hydroxypropylmethylcellulose (HPMC) and administered in three doses (from 1.5 to 20 mg/kg each) by oral gavage according to the following schedule: on day one, animals received treatment in the morning and the evening (ca. 17:00), on day two animals received the final treatment in the morning after a 4 h fast and were sacrificed 4 h thereafter. Animal work was conducted according to the national guidelines for animal care in Germany.
Multiple oral dosing of compounds from the present invention in mice lead to a high liver exposure with a favourable liver to plasma ratio. […] These genes are related to hepatic de-novo lipogenesis. A suppression of these genes will reduce liver fat (liver triglycerides).

[3] = liver, read-out: liver exposure, 4 h
[4] = plasma, read-out: plasma exposure, 4 h

EC50 (LXRβ full length (FL)) | Kp at 4 h [1] | blood/plasma exposure [1] | liver exposure [1] | concentration at 4 h [2, 3] | Kp at 4 h [2] | concentration at 4 h [2, 4] | Structure (SMILES)
< 100 nM | 116 | 0.35 µM | 40.9 µM | 18.4 µM | 61.3 | 0.3 µM | Cc1ccc2ccccc2c1C(=O)N(Cc1ccc(C(F)(F)F)o1)Cc1ncc(-c2cccc(C(C)(C)C(=O)O)c2)cc1Cl [27/78]
< 100 nM | 45 | 1.06 µM | 47.9 µM | 24.9 µM | 7.9 | 3.16 µM | Cc1ccc2ccccc2c1C(=O)N(Cc1ccc(-c2cccc([C@@H](C)C(=O)O)c2)cc1)Cc1ccc(C(F)(F)F)o1 [10/5]
